From patent US11666589B2, “Pivarubicin and benzarubicin compositions” (Paradox Pharmaceuticals, Inc., priority 2020, dated 2023)
Like-named read-outs stand apart in the source and are kept apart here.

Columns and labels:
[1] = Maximum tolerated dose in non-tumor-bearing mice; type: in vivo, female NSG mice
Protocol: The MTD for pivarubicin was 26.6 mg/kg, producing a reversible mean 20% weight loss after two doses, with a third dose producing an irreversible mean weight loss >20%.

SUM159 cells = assay: MTT cytotoxicity, TNBC monolayer SUM159; type: cell-based; details: SUM159, 48 h
Protocol: Based upon the ability of pivarubicin to circumvent multiple mechanisms of resistance against doxorubicin, we then examined the efficacy of pivarubicin against TNBC in comparison to doxorubicin, using the following procedure, using two basal TNBC cell lines. MDA-MB-231 cells and SUM-159 cells were maintained under adherent monolayer growth conditions. Upon reaching 50% confluency, cells were treated for 48 h with the dose range of doxorubicin or pivarubicin as indicated in FIGS. 6A and 6B. Cell viability was corrected for death observed in vehicle-only-treated cells (<1% ethanol final well concentration).

CEM/VLB-10 = assay: Drug resistance of P-glycoprotein overexpressing CEM/VLB-10 cells; type: cell-based, human; details: CEM/VLB-10 versus CCRF-CEM
Protocol: Pivarubicin used for TNBC studies was synthesized by Dr. John Rimoldi (Univ. of Mississippi) using the previously described protocol. Doxorubicin HCl, rottlerin and all antibodies were purchased from Sigma-Aldrich (St. Louis, Mo.). For in vitro experiments, doxorubicin and pivarubicin were dissolved in DMSO. The final maximum DMSO concentration used for in vitro drug treatments (1% for 72 hours) was not cytotoxic. IL-3-dependent 32D.3 murine myeloid cells, CCRF-CEM human lymphoblastic leukemia cells and multidrug-resistant variants (generous gift of Dr. William T. Beck, St. Jude Children's Research Hospital, Memphis, Tenn.), 293 embryonic human kidney cells and HL-60 human acute myeloid leukemia cells transfected with Bcr-Abl, Bcl-XL or empty expression vectors (generous gift of Dr. Kapil Bhalla, Univ. of Miami) were maintained as previously described. K562 human chronic myelogenous leukemia and LNCaP human prostate cancer cells were purchased from ATCC (Manassas, Va.) and maintained as described by the vendor. LNCaP/Bcl-2 cells were the generous gift of Dr. Ralph Buttyan (Columbia Univ.). Luminescent MDA-MB-231-LM2 (LM-2; metastatic lung subpopulation isolated from human TNBC MDA-MB-231 cells transduced with eIF1a-Luc2-puro lentivirus) were generously provided by Dr. Yibin Kang, Princeton Univ.) and maintained in culture as previously described. […]

MDA-MB-231 cells = assay: Secondary tumorsphere formation; type: cell-based, human; details: 2.5 μM, up to 7 days
Protocol: either vehicle, pivarubicin (NV), or doxorubicin (DOX), and cultured for up to 7 days prior to obtaining the digital images shown in FIG. 6C (vehicle only), FIG. 6D (2.5 uM PIV), and FIG. 6E (2.5 uM DOX). The bar graph in FIG. 6F represents the mean number of tumorspheres greater than […] in diameter/well (n>3).

32D.3 cells = assay: Cell viability by trypan blue with or without rottlerin
Protocol: Rottlerin treatment of cells, cell viability analysis by MTT [28] and immunoblot identification of protein expression were performed and described previously.
FIGS. 4A-4D are charts and images from studies of pivarubicin cytotoxicity mediated through PKC-delta (PKCd) activation. For FIG. 4A, 32D.3 cells, suspended in RPMI-1640 medium/10% FCS/IL-3 at a density of 5×10^5 cells/ml, were treated with either DMSO (C) or 5 μM pivarubicin (PIV) for 4 h prior to harvesting, cell fractionation, and immunoblot analysis of PKCd as described previously. For FIG. 4B, 32D.3 cells were pretreated with 10 μM rottlerin for 2 h prior to exposure to 5 μM drug for 1 h at 37° C. Cells were pelleted and washed twice in large volumes of warm PBS, then resuspended in fresh, drug-free medium containing 10 μM rottlerin at 5×10^5 cells/ml and incubated at 37° C. for up to 72 h. At indicated times, aliquots of cells were withdrawn and stained with trypan blue. Viable cells were scored based on the exclusion of stain and gross morphological appearance. For the results shown in FIGS. 4C and 4D, 32D.3 cells were transfected with PKCd siRNA or scrambled siRNA as described in the Materials and Methods section under “Chemicals and Biologicals”. The cells were then assessed for pivarubicin cytotoxicity as for FIG. 4A. Each datum point represents the mean and standard error of at least three independent determinations, each consisting of 300-500 cells per count, when possible.

[2] = without rottlerin, doxorubicin at IC50 concentration

Row | SMILES | reversible mean weight loss ([1]; 1.4 mg/kg after 3 prior escalating doses) | irreversible mean weight loss ([1]; 1.8 mg/kg, independent dosing experiment) | MTD ([1]; i.p. once every 2 weeks) | IC50 (SUM159 cells) | IC90 (SUM159 cells) | resistance (CEM/VLB-10) | inhibition of secondary tumorsphere formation (MDA-MB-231 cells) | effect of rottlerin co-treatment on cytotoxicity (32D.3 cells; 10 μM rottlerin) | time to 50% cell kill (32D.3 cells; [2]) | reversible mean weight loss ([1]; 26.6 mg/kg, after two doses) | irreversible mean weight loss ([1]; 26.6 mg/kg, third dose) | IC50 (SUM159 cells; MTT, read-out: IC50) | IC90 (SUM159 cells; MTT, read-out: IC90) | time to 50% cell kill (32D.3 cells; co-treatment with 10 μM rottlerin)
1 | COc1cccc2c1C(=O)c1c(O)c3c(c(O)c1C2=O)C[C@@](O)(C(=O)CO)C[C@@H]3O[C@H]1C[C@H](N)[C@H](O)[C@H](C)O1 [Doxorubicin, reference compound] | 22% | > 25% | 1.4 mg/kg | 4000 nM | > 20000 nM | 12 fold | partial inhibition | does not alter | 24 h |  |  |  |  | 
2 | COc1cccc2c1C(=O)c1c(O)c3c(c(O)c1C2=O)C[C@@](O)(C(=O)COC(=O)C(C)(C)C)C[C@@H]3O[C@H]1C[C@H](NCc2ccccc2)[C@H](O)[C@H](C)O1 [Pivarubicin, N-Benzyladriamycin-14-pivalate] |  |  |  |  |  | no resistance | complete inhibition |  | ≤ 6 h | 20% | > 20% | 1500 nM | 1700 nM | 24 h
